Laboratory results taken from PubChem BioAssay AID1982 (Sanford-Burnham Center for Chemical Genomics, 2009).
Activity calls are given as the source filed them. No rule for the calls is given here.

How the values were obtained:
Test in all cases: kinase panel binding selectivity, selectivity assay, biochemical, KINOMEscan (AID 1982)
[1] = target: Fibroblast growth factor receptor 3 (Homo sapiens) (UniProt P22607); details: KINOMEscan 353-kinase binding panel, qPCR, at 10 µM, active compounds read low
Fibroblast growth factor receptor 3 (Homo sapiens), sequence (P22607 whole entry, looked up): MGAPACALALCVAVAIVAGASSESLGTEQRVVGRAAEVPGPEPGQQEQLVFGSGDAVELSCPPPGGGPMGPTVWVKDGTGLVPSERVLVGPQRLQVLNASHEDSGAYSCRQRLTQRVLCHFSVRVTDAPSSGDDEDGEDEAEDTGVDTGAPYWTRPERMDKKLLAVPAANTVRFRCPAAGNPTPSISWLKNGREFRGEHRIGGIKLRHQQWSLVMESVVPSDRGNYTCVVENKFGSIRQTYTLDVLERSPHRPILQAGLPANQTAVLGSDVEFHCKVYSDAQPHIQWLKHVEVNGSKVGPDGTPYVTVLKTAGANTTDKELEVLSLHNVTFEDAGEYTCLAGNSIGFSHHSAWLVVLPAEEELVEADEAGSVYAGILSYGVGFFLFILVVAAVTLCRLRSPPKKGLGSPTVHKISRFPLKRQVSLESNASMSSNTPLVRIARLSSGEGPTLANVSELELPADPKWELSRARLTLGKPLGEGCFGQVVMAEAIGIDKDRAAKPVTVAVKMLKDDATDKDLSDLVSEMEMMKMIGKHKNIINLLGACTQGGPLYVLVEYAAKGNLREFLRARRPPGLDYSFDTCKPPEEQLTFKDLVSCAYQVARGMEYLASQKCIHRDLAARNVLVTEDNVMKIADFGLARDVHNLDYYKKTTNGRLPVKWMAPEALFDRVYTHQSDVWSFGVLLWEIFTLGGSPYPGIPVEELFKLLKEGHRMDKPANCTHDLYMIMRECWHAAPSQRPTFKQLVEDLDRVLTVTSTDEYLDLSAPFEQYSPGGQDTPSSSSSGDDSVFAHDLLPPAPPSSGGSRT

[2] = target: Mitogen-activated protein kinase kinase kinase kinase 2 (Homo sapiens) (UniProt Q12851); details: KINOMEscan 353-kinase binding panel, qPCR; MAP4K2; at 10 µM; active compounds read low
Mitogen-activated protein kinase kinase kinase kinase 2 (Homo sapiens), sequence (Q12851 whole entry, looked up): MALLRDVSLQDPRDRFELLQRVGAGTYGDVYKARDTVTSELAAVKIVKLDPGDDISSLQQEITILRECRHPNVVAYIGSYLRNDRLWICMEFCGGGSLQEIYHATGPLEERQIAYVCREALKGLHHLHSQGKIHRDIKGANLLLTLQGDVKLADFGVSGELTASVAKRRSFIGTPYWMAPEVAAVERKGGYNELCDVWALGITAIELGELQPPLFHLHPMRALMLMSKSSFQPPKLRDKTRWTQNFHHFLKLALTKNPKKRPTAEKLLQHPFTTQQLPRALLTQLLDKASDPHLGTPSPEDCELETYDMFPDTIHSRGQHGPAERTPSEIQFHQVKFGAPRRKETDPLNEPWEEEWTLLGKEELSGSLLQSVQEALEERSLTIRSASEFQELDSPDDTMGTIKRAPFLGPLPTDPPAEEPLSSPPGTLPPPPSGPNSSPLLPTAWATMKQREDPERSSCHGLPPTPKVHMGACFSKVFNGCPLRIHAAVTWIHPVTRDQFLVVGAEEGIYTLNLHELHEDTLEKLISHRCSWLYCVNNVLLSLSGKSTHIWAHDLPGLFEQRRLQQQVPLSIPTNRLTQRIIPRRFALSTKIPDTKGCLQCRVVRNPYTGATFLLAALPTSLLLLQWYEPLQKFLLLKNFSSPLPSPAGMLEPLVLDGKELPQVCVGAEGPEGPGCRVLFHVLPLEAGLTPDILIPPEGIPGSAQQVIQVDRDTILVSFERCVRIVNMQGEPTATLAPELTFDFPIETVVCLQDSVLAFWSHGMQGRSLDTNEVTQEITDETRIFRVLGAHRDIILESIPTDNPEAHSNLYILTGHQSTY

NEK7 = details: KINOMEscan 353-kinase binding panel, qPCR, at 10 µM, active compounds read low
PKAC-beta = details: KINOMEscan 353-kinase binding panel, qPCR, at 10 µM, active compounds read low
[3] = target: Casein kinase I isoform gamma-3 (Homo sapiens) (UniProt Q9Y6M4); details: KINOMEscan 353-kinase binding panel, qPCR; CSNK1G3; at 10 µM; active compounds read low
Casein kinase I isoform gamma-3 (Homo sapiens), sequence (Q9Y6M4 whole entry, looked up, canonical isoform): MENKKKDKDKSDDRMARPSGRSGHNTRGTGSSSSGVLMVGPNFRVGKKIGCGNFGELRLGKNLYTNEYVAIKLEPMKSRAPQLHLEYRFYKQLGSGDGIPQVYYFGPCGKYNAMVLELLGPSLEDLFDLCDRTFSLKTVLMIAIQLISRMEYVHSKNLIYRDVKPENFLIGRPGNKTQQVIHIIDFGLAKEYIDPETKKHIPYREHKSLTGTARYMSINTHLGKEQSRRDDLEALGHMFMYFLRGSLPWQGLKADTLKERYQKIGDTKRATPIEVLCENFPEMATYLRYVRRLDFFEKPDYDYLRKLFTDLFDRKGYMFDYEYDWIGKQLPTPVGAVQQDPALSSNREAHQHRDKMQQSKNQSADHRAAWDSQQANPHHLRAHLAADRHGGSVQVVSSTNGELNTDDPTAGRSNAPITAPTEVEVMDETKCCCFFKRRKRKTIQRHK

[4] = target: Protein-tyrosine kinase 6 (Homo sapiens) (UniProt Q13882); details: KINOMEscan 353-kinase binding panel, qPCR; PTK6; at 10 µM; active compounds read low
[5] = target: Tyrosine-protein kinase SYK (Homo sapiens) (UniProt P43405); details: KINOMEscan 353-kinase binding panel, qPCR, at 10 µM, active compounds read low
MUSK = details: KINOMEscan 353-kinase binding panel, qPCR, at 10 µM, active compounds read low
PFTK1 = details: KINOMEscan 353-kinase binding panel, qPCR, at 10 µM, active compounds read low
[6] = target: Mitogen-activated protein kinase 12 (Homo sapiens) (UniProt P53778); details: KINOMEscan 353-kinase binding panel, qPCR; p38-gamma; at 10 µM; active compounds read low
Mitogen-activated protein kinase 12 (Homo sapiens), sequence (P53778 whole entry, looked up): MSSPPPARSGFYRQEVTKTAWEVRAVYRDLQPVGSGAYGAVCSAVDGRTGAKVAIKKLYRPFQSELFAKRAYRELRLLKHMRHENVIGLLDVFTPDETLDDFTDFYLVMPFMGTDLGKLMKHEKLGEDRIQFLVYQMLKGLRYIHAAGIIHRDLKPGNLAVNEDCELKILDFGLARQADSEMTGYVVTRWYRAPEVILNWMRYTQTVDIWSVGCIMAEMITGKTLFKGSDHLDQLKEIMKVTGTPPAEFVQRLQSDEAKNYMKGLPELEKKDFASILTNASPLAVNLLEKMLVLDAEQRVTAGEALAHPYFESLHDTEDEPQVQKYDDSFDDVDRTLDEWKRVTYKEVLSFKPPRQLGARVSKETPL

DRAK2 = details: KINOMEscan 353-kinase binding panel, qPCR, at 10 µM, active compounds read low
[7] = target: Mitogen-activated protein kinase 3 (Homo sapiens) (UniProt P27361); details: KINOMEscan 353-kinase binding panel, qPCR; ERK1; at 10 µM; active compounds read low
Mitogen-activated protein kinase 3 (Homo sapiens), sequence (P27361 whole entry, looked up): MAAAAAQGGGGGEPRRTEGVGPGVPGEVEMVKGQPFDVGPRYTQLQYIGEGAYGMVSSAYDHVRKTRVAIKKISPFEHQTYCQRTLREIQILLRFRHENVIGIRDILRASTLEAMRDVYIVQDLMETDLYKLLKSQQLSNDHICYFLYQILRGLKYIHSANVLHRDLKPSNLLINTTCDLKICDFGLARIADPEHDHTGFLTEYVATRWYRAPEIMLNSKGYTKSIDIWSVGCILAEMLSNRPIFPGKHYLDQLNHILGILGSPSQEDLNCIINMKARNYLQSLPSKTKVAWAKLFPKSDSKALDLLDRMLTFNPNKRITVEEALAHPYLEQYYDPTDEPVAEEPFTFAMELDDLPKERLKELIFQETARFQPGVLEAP

[8] = target: RAC-alpha serine/threonine-protein kinase (Homo sapiens) (UniProt P31749); details: KINOMEscan 353-kinase binding panel, qPCR; AKT1; at 10 µM; active compounds read low
RAC-alpha serine/threonine-protein kinase (Homo sapiens), sequence (P31749 whole entry, looked up): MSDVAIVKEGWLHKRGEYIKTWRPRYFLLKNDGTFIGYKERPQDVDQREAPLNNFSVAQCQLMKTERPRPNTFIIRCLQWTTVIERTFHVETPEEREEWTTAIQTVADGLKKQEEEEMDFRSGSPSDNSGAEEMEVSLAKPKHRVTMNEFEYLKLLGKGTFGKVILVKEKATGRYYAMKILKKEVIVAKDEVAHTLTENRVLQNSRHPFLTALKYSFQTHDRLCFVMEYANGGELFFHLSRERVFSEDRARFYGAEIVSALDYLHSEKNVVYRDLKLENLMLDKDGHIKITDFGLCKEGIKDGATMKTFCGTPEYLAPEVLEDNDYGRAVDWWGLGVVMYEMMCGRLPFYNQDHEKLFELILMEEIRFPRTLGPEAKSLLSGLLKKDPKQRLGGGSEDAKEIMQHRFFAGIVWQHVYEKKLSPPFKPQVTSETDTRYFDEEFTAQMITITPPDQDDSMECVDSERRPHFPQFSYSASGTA

ADCK3 = details: KINOMEscan 353-kinase binding panel, qPCR, at 10 µM, active compounds read low
[9] = target: Macrophage colony-stimulating factor 1 receptor (Homo sapiens) (UniProt P07333); details: KINOMEscan 353-kinase binding panel, qPCR; CSF1R; at 10 µM; active compounds read low
[10] = target: Wee1-like protein kinase (Homo sapiens) (UniProt P30291); details: KINOMEscan 353-kinase binding panel, qPCR, at 10 µM, active compounds read low
EPHB3 = details: KINOMEscan 353-kinase binding panel, qPCR, at 10 µM, active compounds read low
DAPK1 = details: KINOMEscan 353-kinase binding panel, qPCR, at 10 µM, active compounds read low
MLK1 = details: KINOMEscan 353-kinase binding panel, qPCR, at 10 µM, active compounds read low
PRKCE = details: KINOMEscan 353-kinase binding panel, qPCR, at 10 µM, active compounds read low
MEK3 = details: KINOMEscan 353-kinase binding panel, qPCR, at 10 µM, active compounds read low
[11] = target: Insulin-like growth factor 1 receptor (Homo sapiens) (UniProt P08069); details: KINOMEscan 353-kinase binding panel, qPCR; IGF1R; at 10 µM; active compounds read low
SNF1LK = details: KINOMEscan 353-kinase binding panel, qPCR, at 10 µM, active compounds read low
[12] = target: Phosphatidylinositol 5-phosphate 4-kinase type-2 beta (Homo sapiens) (UniProt P78356); details: KINOMEscan 353-kinase binding panel, qPCR; PIP5K2B; at 10 µM; active compounds read low
Phosphatidylinositol 5-phosphate 4-kinase type-2 beta (Homo sapiens), sequence (P78356 whole entry, looked up): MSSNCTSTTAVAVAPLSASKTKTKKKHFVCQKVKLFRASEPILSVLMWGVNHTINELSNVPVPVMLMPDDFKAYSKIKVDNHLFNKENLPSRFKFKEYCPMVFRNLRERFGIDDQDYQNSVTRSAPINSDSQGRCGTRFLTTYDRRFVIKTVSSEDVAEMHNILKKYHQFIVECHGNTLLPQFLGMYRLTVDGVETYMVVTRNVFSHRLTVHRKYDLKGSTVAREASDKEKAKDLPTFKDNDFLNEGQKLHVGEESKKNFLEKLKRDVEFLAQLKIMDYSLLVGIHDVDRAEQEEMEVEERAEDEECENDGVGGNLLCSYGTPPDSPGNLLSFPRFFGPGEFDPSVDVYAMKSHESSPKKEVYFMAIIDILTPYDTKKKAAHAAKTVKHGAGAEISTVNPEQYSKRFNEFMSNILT

STK36 = details: KINOMEscan 353-kinase binding panel, qPCR, at 10 µM, active compounds read low
JNK1 = details: KINOMEscan 353-kinase binding panel, qPCR, at 10 µM, active compounds read low
PHKG1 = details: KINOMEscan 353-kinase binding panel, qPCR, at 10 µM, active compounds read low
[13] = target: Leukocyte tyrosine kinase receptor (Homo sapiens) (UniProt P29376); details: KINOMEscan 353-kinase binding panel, qPCR; LTK; at 10 µM; active compounds read low
Leukocyte tyrosine kinase receptor (Homo sapiens), sequence (P29376 whole entry, looked up): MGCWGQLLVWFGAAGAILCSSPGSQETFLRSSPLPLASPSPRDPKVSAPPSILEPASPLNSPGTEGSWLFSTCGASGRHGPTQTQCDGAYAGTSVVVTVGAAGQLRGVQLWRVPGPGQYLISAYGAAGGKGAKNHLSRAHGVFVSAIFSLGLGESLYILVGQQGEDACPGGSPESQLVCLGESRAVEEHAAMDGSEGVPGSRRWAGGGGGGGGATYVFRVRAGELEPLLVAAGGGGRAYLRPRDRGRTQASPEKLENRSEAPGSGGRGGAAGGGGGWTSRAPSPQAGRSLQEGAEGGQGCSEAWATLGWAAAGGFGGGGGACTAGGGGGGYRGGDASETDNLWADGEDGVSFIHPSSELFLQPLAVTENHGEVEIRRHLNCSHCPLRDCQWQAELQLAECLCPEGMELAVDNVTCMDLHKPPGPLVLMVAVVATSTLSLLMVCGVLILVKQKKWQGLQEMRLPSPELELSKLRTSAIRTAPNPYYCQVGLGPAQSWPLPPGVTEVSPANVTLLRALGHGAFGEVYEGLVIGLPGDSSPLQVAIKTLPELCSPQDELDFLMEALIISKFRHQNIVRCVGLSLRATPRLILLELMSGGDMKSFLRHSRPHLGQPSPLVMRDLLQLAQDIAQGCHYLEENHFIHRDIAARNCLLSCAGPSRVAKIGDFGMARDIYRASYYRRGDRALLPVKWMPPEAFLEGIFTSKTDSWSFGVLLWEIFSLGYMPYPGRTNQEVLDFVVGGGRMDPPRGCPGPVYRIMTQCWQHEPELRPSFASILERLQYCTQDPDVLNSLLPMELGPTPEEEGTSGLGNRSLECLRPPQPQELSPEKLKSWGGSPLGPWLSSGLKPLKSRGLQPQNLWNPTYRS

RIOK3 = details: KINOMEscan 353-kinase binding panel, qPCR, at 10 µM, active compounds read low
[14] = target: NT-3 growth factor receptor (Homo sapiens) (UniProt Q16288); details: KINOMEscan 353-kinase binding panel, qPCR; TRKC; at 10 µM; active compounds read low
[15] = target: Serine/threonine-protein kinase DCLK1 (Homo sapiens) (UniProt O15075); details: KINOMEscan 353-kinase binding panel, qPCR; DCAMKL1; at 10 µM; active compounds read low
EPHB1 = details: KINOMEscan 353-kinase binding panel, qPCR, at 10 µM, active compounds read low
DDR2 = details: KINOMEscan 353-kinase binding panel, qPCR, at 10 µM, active compounds read low
[16] = target: MAP kinase-activated protein kinase 5 (Homo sapiens) (UniProt Q8IW41); details: KINOMEscan 353-kinase binding panel, qPCR; MAPKAPK5; at 10 µM; active compounds read low
[17] = target: Tyrosine-protein kinase HCK (Homo sapiens) (UniProt P08631); details: KINOMEscan 353-kinase binding panel, qPCR, at 10 µM, active compounds read low

percent of control binding ([1]; FGFR3(G697C)): 100% (inactive) | percent of control binding ([1]; FGFR3): 80% (inactive) | percent of control binding [2]: 89% (inactive) | percent of control binding (NEK7): 97% (inactive) | percent of control binding (PKAC-beta): 95% (inactive) | percent of control binding [3]: 100% (inactive) | percent of control binding [4]: 100% (inactive) | percent of control binding [5]: 100% (inactive) | percent of control binding (MUSK): 100% (inactive) | percent of control binding (PFTK1): 88% (inactive) | percent of control binding [6]: 95% (inactive) | percent of control binding (DRAK2): 100% (inactive) | percent of control binding [7]: 94% (inactive) | percent of control binding [8]: 100% (inactive) | percent of control binding (ADCK3): 72% (inactive) | percent of control binding [9]: 72% (inactive) | percent of control binding [10]: 90% (inactive) | percent of control binding (EPHB3): 86% (inactive) | percent of control binding (DAPK1): 87% (inactive) | percent of control binding (MLK1): 100% (inactive) | percent of control binding (PRKCE): 64% (inactive) | percent of control binding (MEK3): 100% (inactive) | percent of control binding [11]: 54% (inactive) | percent of control binding (SNF1LK): 100% (inactive) | percent of control binding [12]: 99% (inactive) | percent of control binding (STK36): 100% (inactive) | percent of control binding (JNK1): 100% (inactive) | percent of control binding (PHKG1): 100% (inactive) | percent of control binding [13]: 92% (inactive) | percent of control binding (RIOK3): 100% (inactive) | percent of control binding [14]: 100% (inactive) | percent of control binding [15]: 100% (inactive) | percent of control binding (EPHB1): 95% (inactive) | percent of control binding (DDR2): 65% (inactive) | percent of control binding [16]: 100% (inactive) | percent of control binding [17]: 93% (inactive)
Compound: Cc1cc2nc(NCCCO)n(CC(=O)c3cc(C(C)(C)C)c(O)c(C(C)(C)C)c3)c2cc1C
